This is an account of results in patent US5792457A, “Antibody recognizing endothelial cell ligand for leukocyte CR3” (priority 1995, dated 1998).

For the assay, the system named is blood brain barrier permeability (CSF protein). As to the kind of experiment: Rabbit model for meningitis: protein in CSF (blood brain barrier permeability). The class given is in vivo, New Zealand white rabbits. As to conditions: for Total protein in CSF, 6 hours: 6 hours after inoculation (Example 11, 1 μM peptide; FHA 0.1 μM); for Total protein in CSF, 7 hours: 7 hours after inoculation (Example 11, 1 μM peptide; FHA 0.1 μM); for protein influx into CSF and generation of lactate (in words): 10 μM peptides (Table 10); for Protein in CSF: 6 hours after challenge. On the procedure:
The rabbit model was performed according to an established protocol. Specific pathogen free, New Zealand white rabbits (2 kg; Hare Marland, Nutley, N.J.) were anesthetized with valium (2.5 mg/kg, subcutaneously, Hoffman-LaRoche, Nutley, N.J.), ketamine (35 mg/kg, intra-muscularly, Aveco, Fort Dodge, Iowa) and xylazine (5 mg/kg, intramuscularly, Miles Laboratories, Shawnee, Kans.) and a helmet of dental acrylic was affixed to the calvarium. Twenty four hours later, the rabbits were anesthetized with ethyl carbamate (1.75 g/kg; Aldrich Chemical Co., Milwaukee, Wis.) and pentobarbital (15 mg/kg; Abbott Laboratories, Abbott Park, Ill.) and placed in a stereotaxic frame. A spinal needle was introduced into the cisterna magna and 300 μl of CSF was withdrawn. The animals were challenged intracisternally with 10^8 heat killed, unencapsulated pneumococcus strain R6 introduced in 200 μl of saline (time 0). One hour later, animals were treated with peptides dissolved in 1 ml of saline by intravenous injection into the right marginal ear vein. The concentration of FHA was 0.1 μM and that of the FHA Ia, Factor X II, and scrambled FHA II peptides was 10 μM. For the acetyl-FHA II, acetyl/amide-FHA II, dimer of FHA II and trimer of FHA II peptides, the concentration was 10^-3 μM. The concentration of FHA II is given in the results section. Samples of CSF were withdrawn at hourly intervals after pneumococcal inoculation and leukocyte density was measured using a cell counter (Coulter Electronics Inc., Hialeah, Fla.). CSF samples were centrifuged at 10,000×g for 5 minutes and the supernatant was stored at -70° C. until assayed for protein concentration using the bicinchoninic acid method (ECA Kit, Pierce Chemical Co., Rockford, Ill.) and for lactate concentration (Lactate Detection Kit, Sigma, St. Louis, Mo.). Statistically significant differences between treatments were determined by a one way analysis of variance test.
Loss of barrier function of the cerebral capillary endothelium during inflammation is reflected by an influx of serum proteins into the CSF. […] To examine if the peptides were able to ameliorate these measures of cerebral injury, CSF protein and lactate concentrations were measured hourly in peptide-treated and control animals (Table 10).
Mean values for CSF lactate and protein at time 0 were 18.6±5.8 and 0.8±0.2 respectively. Ten control animals received phosphate-buffered saline. The concentration of FHA II intravenously injected one hour after challenge with pneumococci was 10 μM. Values represent mean±standarddeviation of concentrations in CSF at 6 hours after pneumococcal challenge (n≥4 for peptide treated animals; n=4 for FHA). *Statistically significant difference as compared to control at p<0.02 (Mann-Whitney test).
Again, mean values for CSF lactate and protein at time 0 were 18.6±5.8 and 0.8±0.2, respectively. Ten control animals received phosphate-buffered saline. The concentrations of FHA II intravenously injected was 10^-3 μM. Values represent mean±standard deviation of concentrations in CSF at 6 hours after pneumococcal administration (n≥4 per group).
The anti-inflammatory effects of the administered peptides were assessed in the rabbit model for meningitis by the procedures described in Example 10. The animals received 1 ml of 1 uM peptide intravenously. In a slight departure from the protocol described in Example 10, samples of blood were drawn from the left marginal ear vein 30 minutes after the administration of the peptides to determine peripheral leukocyte concentrations.
Values represent mean ±standard deviation of at least four animals per group. ^1 Time after intracisternal inoculation of pneumococci. *Statistically significant difference as compared to control at p<0.02 (Mann-Whitney test).

AADPHQGVLAQGDIIMDAKG [FHA Cc]: the “Total protein in CSF, 6 hours” value is 1.36 ± 0.16 mg/mL and the “Total protein in CSF, 7 hours” value is 1.90 ± 0.22 mg/mL.

With RGDPHQGVLAQGDIIMDAKG [FHA Ca], the “Total protein in CSF, 6 hours” value turned out to be 1.18 ± 0.39 mg/mL and the “Total protein in CSF, 7 hours” value stood at 1.69 ± 0.41 mg/mL. In addition, the “influx of serum protein into CSF (in words)” value (1 μM, entire observation period) is “reduced the influx of serum protein significantly during the entire observation period”.

With Ac-ETKEVDG-NH2 [Acetyl/Amide-FHA II], the “protein influx into CSF and generation of lactate (in words)” value (“protein influx into CSF and generation” below) is “significantly reduced protein influx into the CSF and generation of lactate”. In addition, the “Protein in CSF” value (peptides 10 μM, FHA 0.1 μM) is recorded as 1.2 ± 0.6 mg/ml CSF.

Take “LGYQAK (UniProt P12255 1979-1984, looked up, fragment) [FHA Ia]”: the “protein influx into CSF and generation” value is given as “no significant reduction”. Where the note is “peptides 10 μM, FHA 0.1 μM”, the “Protein in CSF” value is listed as 1.8 ± 0.4 mg/ml CSF.

As to GYDTKQEDG [Factor X II], the “protein influx into CSF and generation” value was “no significant reduction”. Further, where the note is “peptides 10 μM, FHA 0.1 μM”, the “Protein in CSF” value amounted to 1.6 ± 0.7 mg/ml CSF.

For GTLLLRNDALTENGTVTISA [FHA Cd], the “Total protein in CSF, 6 hours” value is 1.71 ± 0.19 mg/mL and the “Total protein in CSF, 7 hours” value stood at 2.03 ± 0.57 mg/mL.

Turning to “DEETVK [scrambled FHA II, reference compound]”, the “Protein in CSF” value (peptides 10 μM, FHA 0.1 μM) came out at 1.9 ± 0.3 mg/ml CSF.

Take RADPHQGVLAQGDIIMDAKG [FHA Cb]: the “Total protein in CSF, 6 hours” value is 1.91 ± 0.24 mg/mL and the “Total protein in CSF, 7 hours” value came out at 2.28 ± 0.28 mg/mL.

As to “native FHA: Filamentous hemagglutinin, 220kD surface associated protein of Bordetella pertussis (List Biologicals)”, the “protein influx into CSF and generation” value is “significantly protective for protein influx and lactate generation”; the “Total protein in CSF, 6 hours” value was 1.70 ± 0.33 mg/mL; the “Total protein in CSF, 7 hours” value was 1.86 ± 0.76 mg/mL. Moreover, the “Protein in CSF” value (peptides 10 μM, FHA 0.1 μM) is reported as 1.3 ± 0.3 mg/ml CSF.

ETKEVDG [FHA II]: the “protein influx into CSF and generation” value was “significantly reduced protein influx into the CSF and generation of lactate”. In addition, for the setting “10^-3 μM”, the “protein and lactate in CSF (in words)” value is “ineffective at this dose”; the “Protein in CSF” value was determined as 2.45 ± 0.22 mg/ml CSF. The “Protein in CSF” value (peptides 10 μM, FHA 0.1 μM) was found to be 1.4 ± 0.6 mg/ml CSF.
